Patent US20250188143A1, “COMBINED GENE AND RADIO THERAPY FOR THE TREATMENT OF CANCER” (FUNDACION PARA LA INVESTIGACION MEDICA APLICADA, priority 2022, published 2025)
Where two headings read alike, the source gives them in different places.

Experiments:
[1] = tested on: native non-transduced MC38 cells; test: Synergism proof of principle IV, IFN-β protein; type: cell-based, murine
Excerpt: To this end, native non-transduced MC38 cells received 0 Gy, 2 Gy or 8 Gy as described above.

STING = tested on: STING
Method: C57 wild type mice, aged 6 to 10 weeks, were injected intravenously with an AAV8 vector encoding either hSTINGmut (AAV8-hSTINGmut, 1×10^11 viral genomes) or as a control GFP (AAV8-GFP, 1.5×10^11 viral genomes).

[2] = human, in vivo; cited from earlier work
hSTINGwt = target: T1, hSTINGwt (Homo sapiens, UniProt Q86WV6, H232R); test: DMXAA mediated expression of STING-derived cytokines (qPCR); type: cell-based; conditions: other groups (luciferase, hSTINGwt, no vector); 50 μg/mL DMXAA
T1 construct: expressed in transfected cells
T1 sequence (Q86WV6 whole entry H232R): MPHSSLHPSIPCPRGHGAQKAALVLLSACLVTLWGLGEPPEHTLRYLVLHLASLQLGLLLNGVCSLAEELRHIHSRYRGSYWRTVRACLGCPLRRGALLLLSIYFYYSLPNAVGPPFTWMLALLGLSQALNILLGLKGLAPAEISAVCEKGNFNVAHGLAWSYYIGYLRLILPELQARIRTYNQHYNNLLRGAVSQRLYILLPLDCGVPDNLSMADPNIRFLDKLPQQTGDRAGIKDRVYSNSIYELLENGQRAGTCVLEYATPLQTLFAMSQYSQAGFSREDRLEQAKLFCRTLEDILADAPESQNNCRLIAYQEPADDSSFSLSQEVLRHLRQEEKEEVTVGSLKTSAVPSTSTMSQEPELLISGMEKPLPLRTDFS
Method: (§1) As a readout, the expression of STING-derived cytokines was measured by qPCR.
(§2) To this end, MC38 and Hep2G cells have been transduced with lentiviruses encoding luciferase, hSTINGwt, hSTINGmut to obtain stable cell lines as described above or were not transduced with any lentivirus (no vector). Respective cells were seeded in 24-well plates at a density of 750 cells/mm^2 in growth medium. […] Cells were harvested and prepared for qPCR measurements as described above. The expression of the cytokines IFN-β, TNF-α, IL-6, CXCL9 and CXCL10 were measured for either experimental group and expression levels relative to controls (no vector) were quantified.

hSTINGmut [3] = target: T2, hSTINGmut (Homo sapiens, UniProt Q86WV6, G230I/H232R/Q266I/S162A); test: as above; type: cell-based; conditions: hSTINGmut-transduced MC38 and Hep2G cells; 50 μg/mL DMXAA, 3 h or 6 h
T2 construct: expressed in transfected cells
T2 sequence (Q86WV6 whole entry S162A/G230I/H232R/Q266I): as the sequence (Q86WV6 whole entry H232R) above, with S162A, G230I, Q266I counted along it
Method: as §1, §2

MC38 cells [4] = test: Synergism proof of principle I, IFN-β mRNA; type: cell-based, murine
Method: To this end, MC38 cells received 8 Gy or 0 Gy as described above (example 7). Cells were seeded thereafter at 750 cells/mm^2 density and were then either mock-transduced or transduced with AAV8-hSTINGmut (1×10^5 viral genomes/cell). For cell transduction 8.5×10^9 viral genomes of AAV8-hSTINGmut from known concentration stock solutions, were resuspended in 50 μl RPMI 2% FBS. The resuspended viral particles were then added to the wells where the cells were seeded.

[5] = target: hSTING[R]-S162A/G230I/Q266I (Homo sapiens, UniProt Q86WV6, G230I/H232R/Q266I/S162A); conditions: cited from earlier work
hSTING[R]-S162A/G230I/Q266I, sequence (Q86WV6 whole entry S162A/G230I/H232R/Q266I): as the sequence (Q86WV6 whole entry H232R) above, with S162A, G230I, Q266I counted along it

human STING = human STING (Homo sapiens, UniProt Q86WV6, H232R); conditions: cited from earlier work
human STING, sequence (Q86WV6 whole entry H232R, the tested form may be a part): as the sequence (Q86WV6 whole entry H232R) above

MC38 cells [6] = test: Synergism proof of principle II, IL-12 mRNA; type: cell-based, murine; conditions: cells transduced with AAV8-hSTINGmut plus AAV8-ISREx4-IL12miR122T
Method: […] The resuspended viral particles were then added to the wells where the cells were seeded. […] The IL-12 mRNA was determined by qPCR as described above (example 3) and expression levels were quantified in reference to non-transduced, non-irradiated cells treated with vehicle.

established tumors = conditions: intratumor injections; STING-dependent; cited from earlier work
hSTINGmut [7] = target: T2, hSTINGmut; test: Time-course expression of STING-derived cytokines upon DMXAA treatment; type: cell-based; conditions: MC38 and Hep2G cells encoding hSTINGmut; 50 μg/mL DMXAA; any given timepoint
Method: The objective of this experiment was to examine the time-course of STING-derived cytokine expression upon DMXAA treatment. As a readout, the expression of STING-derived cytokines was measured by qPCR.
To this end, stable cell lines of MC38 and Hep2G cells encoding hSTINGmut have been obtained as described above. […] Cells were harvested and prepared for qPCR measurements as described above.

HEK293 cells = test: Synergism proof of principle III, IFN-β and IL-12 mRNA; type: cell-based, human; conditions: for IFN-β expression levels: hSTINGmut expressing HEK293 cells
Method: The IFN-β and the IL-12 mRNA expression levels were determined by qPCR as described above (example 1) and expression levels were quantified in reference to the indicated controls.

MC38 tumors = test: Synergism of DMXAA and radiotherapy in a humanized mouse model in vivo, cytokine levels; parameters: species or system STING KO mice; conditions: tumor extracts 6 h after DMXAA 20 mg/kg; irradiated
[8] = 5 or 10 mg DMXAA/kg, AAV8-hSTINGmut transduced mice

In the case of `Cc1ccc2c(=O)c3cccc(CC(=O)O)c3oc2c1C` [DMXAA, 5,6-Dimethylxanthenone-4-acetic acid], the “IFN-β production (ELISA)” value ([1]; 8 Gy plus DMXAA at different doses, 24 h or 48 h) is reported as “exceeding the sum of those obtained with radiation alone and DMXAA alone”, the “IFN-β production (ELISA)” value ([1]; single dose 8 Gy, DMXAA 50 μg/mL 24 h later, collected after another 24 h) is reported as “enhanced” and the “IFN-β levels in serum” value (STING; 20 mg DMXAA/kg i.p., AAV8-GFP transduced control animals, 3 h after injection) is reported as “elevation of IFN-β levels”. For the same compound, the toxicity and mortality (STING; 20 mg DMXAA/kg repeated, AAV8-GFP and AAV8-hSTINGmut mice (systemic STING stimulation)) was “high toxicity and mortality”, the “IFN-β levels in serum” value (STING; [8]) was “only very low levels” and the toxicity and mortality (STING; [8]) was “neither cause significant toxicity nor mortality”. For the same compound, the “efficacy in clinical trials” value [2] was “lack of efficacy”, the “tolerability in clinical trials” value [2] was “well tolerated and only displayed minor side effects” and the “expression of cytokines IFN-β, TNF-α, IL-6, CXCL9 and CXCL10” value (hSTINGwt) was “no significant alteration”. The “expression of cytokines IFN-β, TNF-α, IL-6, CXCL9 and CXCL10” value (hSTINGmut [3]) was “elevated”, the “IFN-β mRNA expression” value (MC38 cells [4]; hSTINGmut-transduced MC38, 8 Gy, DMXAA 50 μg/mL 6 h) was “further increased” and the “IFN-β mRNA expression” value (MC38 cells [4]; hSTINGmut-transduced MC38, no irradiation, DMXAA) was “intermediate expression”. The “IFN-β mRNA expression” value (MC38 cells [4]; non-transduced MC38, 8 Gy, DMXAA 50 μg/mL 6 h) was “increase in IFN-β expression”, the “activation of hSTING[R]-S162A/G230I/Q266I” value [5] was “highly activated” and the “activation of human STING” value (human STING) was “unable to activate”. The “IL-12 mRNA levels” value (MC38 cells [6]; irradiated with 8 Gy) was “strong elevation”, the “IL-12 mRNA levels” value (MC38 cells [6]; non-irradiated) was “slight elevation” and the “CD8+ T cell priming and tumor elimination” value (established tumors) was “effectively prime CD8+ T cell responses and promote elimination of the established tumors”. For the same compound, the “time-course of STING-derived cytokine expression” value (hSTINGmut [7]) was “increase in expression levels”, the IL-12 expression levels (HEK293 cells; HEK293 cells expressing ISREx4-IL12miR122T, radiation and further DMXAA treatment) was “significant increase in IL-12 expression levels” and the IFN-β expression levels (HEK293 cells; DMXAA 50 μg/mL) was “upregulated”. The IFN-β expression levels (HEK293 cells; DMXAA plus additional irradiation 8 Gy) was “significantly increased” and the “intratumor levels of IL-12” value (MC38 tumors) was “increased significantly”.
